Literature values as cited in US20110160253A1, “DEUTERATED TIZANIDINE” (priority 2008, published 2011).

Legend:
[1] = patients treated with tizanidine; appears to be dose related
[2] = primary cytochrome P450 isoenzyme involved being CYP1A2

Clc1ccc2nsnc2c1NC1=NCCN1 [Tizanidine, 5-chloro-4-(2-imidazolin-2-ylamino)-2,1,3-benzothiodiazole]
patients who report sedation [1]: 48%
administered dose that is metabolized [2]: Approximately 95%
